According to article PMC3720659, “Integrated Analysis of Drug-Induced Gene Expression Profiles Predicts Novel hERG Inhibitors” (PLoS ONE, 2013):
Read-outs that look alike come from different tables or passages of the source.

How the values were obtained:
hERG current = details: cited from earlier work
[1] = cited from earlier work
[2] = tested on: recombinantly expressed hERG channels; details: cited from earlier work
hERG channel [3] = target: T1, hERG channel (Homo sapiens, UniProt Q12809); experiment: cell-based
T1 sequence (Q12809 whole entry): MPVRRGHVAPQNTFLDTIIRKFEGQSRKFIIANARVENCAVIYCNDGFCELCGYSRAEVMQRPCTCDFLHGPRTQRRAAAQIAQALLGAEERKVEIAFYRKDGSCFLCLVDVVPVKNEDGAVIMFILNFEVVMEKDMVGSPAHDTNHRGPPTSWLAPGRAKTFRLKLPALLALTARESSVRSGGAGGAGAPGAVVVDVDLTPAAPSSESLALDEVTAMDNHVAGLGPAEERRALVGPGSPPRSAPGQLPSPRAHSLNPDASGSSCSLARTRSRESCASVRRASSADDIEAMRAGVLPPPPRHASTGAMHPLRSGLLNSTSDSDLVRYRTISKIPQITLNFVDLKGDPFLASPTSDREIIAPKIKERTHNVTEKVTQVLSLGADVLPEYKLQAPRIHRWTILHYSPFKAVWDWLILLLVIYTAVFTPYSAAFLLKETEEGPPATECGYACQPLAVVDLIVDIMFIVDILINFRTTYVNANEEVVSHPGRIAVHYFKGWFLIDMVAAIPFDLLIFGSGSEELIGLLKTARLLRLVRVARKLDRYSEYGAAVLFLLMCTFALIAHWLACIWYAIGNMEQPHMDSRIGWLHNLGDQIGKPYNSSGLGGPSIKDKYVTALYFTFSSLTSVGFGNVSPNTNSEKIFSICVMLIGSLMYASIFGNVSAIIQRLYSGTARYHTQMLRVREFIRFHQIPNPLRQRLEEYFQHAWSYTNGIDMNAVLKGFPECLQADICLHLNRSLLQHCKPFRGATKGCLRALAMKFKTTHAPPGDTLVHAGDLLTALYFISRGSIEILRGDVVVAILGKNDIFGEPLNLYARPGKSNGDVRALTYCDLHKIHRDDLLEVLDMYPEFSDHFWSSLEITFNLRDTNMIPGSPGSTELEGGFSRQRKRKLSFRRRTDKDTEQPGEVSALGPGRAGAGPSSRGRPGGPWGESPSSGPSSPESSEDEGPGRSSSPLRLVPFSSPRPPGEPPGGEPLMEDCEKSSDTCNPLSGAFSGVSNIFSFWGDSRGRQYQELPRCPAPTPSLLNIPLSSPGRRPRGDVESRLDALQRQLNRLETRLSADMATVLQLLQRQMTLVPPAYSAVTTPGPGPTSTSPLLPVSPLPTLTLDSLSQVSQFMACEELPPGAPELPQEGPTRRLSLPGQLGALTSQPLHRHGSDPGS
Excerpt: (§1) Inhibition of hERG current was experimentally assessed using a previously described protocol [19]. Briefly, Chinese hamster ovary (CHO) cells stably expressing the hERG channel were dislodged from tissue culture flasks and dispensed into PPC plates. Background leak currents were estimated by initiating a 100 ms step to -80 mV from an initial holding potential of -70 mV and subtracted from the subsequent current measurement. For each drug concentration, sequential voltage pulses were applied, each using a 100 ms step to -30 mV from a holding potential of -70 mV, a 2 s conditioning step to +45 mV, and a 2 s test step to -30 mV. Small molecule effects on hERG current density were quantified by measuring the peak tail current prior to compound application and dividing by the amplitude following application of each test concentration. […] Data were fit to a sigmoidal dose response curve using Origin 6.0 (Microcal).

hERG channel [4] = target: T1, hERG channel
Excerpt: as §1

[5] = inhibitor means 50% or more decrease of hERG current at 10 µM, acute recording
[6] = drug on LQT Drug List, the Cell Line (HL60, MCF7, PC3) is the cell line of the expression profile

Clc1ccc2c(c1)C(N1CCNCC1)=Nc1ccccc1O2 [Amoxapine, reference compound]
hERG inhibition call in the high-throughput electrophysiology assay (hERG current; [5]): negatives
Annotation (LQT Drug) ([1]; on LQT Drug List, the Cell Line (HL60, MCF7, PC3) names the expression profile): LQT Drug

CCN(CC)CCOc1ccc(C(=C(Cl)c2ccccc2)c2ccccc2)cc1 [Clomiphene]
IC50 ([2]; read-out: IC50 for inhibition of the current of recombinantly expressed hERG channels): 180 nM

Clc1ccc(C(OCCN2CCCCC2)c2ccccc2)cc1 (centres unmarked) [Cloperastine]
IC50 (hERG channel [3]): 360 ± 50 nM

CC(NCCC(c1ccccc1)c1ccccc1)c1ccccc1 (centres unmarked) [Fendiline, reference compound]
Association with drug-induced LQT ([1]; previous literature, not in the LQT drug lists used): drug-induced LQT
IC50 (hERG channel [3]): 2600 ± 100 nM

CCCCC(CC)CN1CN(CC(CC)CCCC)CC(C)(N)C1 (centres unmarked) [Hexetidine]
Behaviour during hERG electrophysiology recording (hERG channel [4]): appears to disrupt the membrane seal during recording

OC(c1cc(C(F)(F)F)nc2c(C(F)(F)F)cccc12)C1CCCCN1 (centres unmarked) [Mefloquine, reference compound]
Annotation (hERG Active / Inactive) (hERG current): Inactive
hERG inhibition call in the high-throughput electrophysiology assay (hERG current): inactive
Inhibition of hERG channels recombinantly expressed in cell lines [2]: inhibit

Clc1ccc(COC(Cn2ccnc2)c2ccc(Cl)cc2Cl)c(Cl)c1 (centres unmarked) [Miconazole, reference compound]
Annotation (hERG Active / Inactive) (hERG current; hERG inhibition annotation of the drug, the Cell Line (HL60, MCF7, PC3) is the cell line of the expression profile, not of the hERG test): Inactive
hERG inhibition call in the high-throughput electrophysiology assay (hERG current; [5]): inactive
Inhibition of hERG channels recombinantly expressed in cell lines [2]: inhibit

Cc1cccc(C)c1OCC(C)N (centres unmarked) [mexiletine]
Annotation (LQT Drug) [1, 6]: LQT Drug

CNCCC=C1c2ccccc2CCc2ccccc21 [nortriptyline]
Annotation (LQT Drug) [1, 6]: LQT Drug

CC1COc2c(N3CCN(C)CC3)c(F)cc3c(=O)c(C(=O)O)cn1c23 (centres unmarked) [ofloxacin]
Annotation (LQT Drug) [1, 6]: LQT Drug

CC(Cc1ccccc1)NCCC(c1ccccc1)c1ccccc1 (centres unmarked) [prenylamine]
Annotation (LQT Drug) [1, 6]: LQT Drug
